The values that follow come from patent publication EP0392423A2, “Substituted 1,4-7-10-tetraazacyclotridecanes, method for their preparation and use of the same for labelling substances with radionuclides” (priority 1989, dated 1990).

Like-named read-outs stand apart in the source and are kept apart here.

The series relates to Transferrin. As to conditions: human, serum. The protocol:
Bei diesen Vergleichsversuchen wurde ¹¹¹In sowohl mit den bekannten 12- und 14-Ring-Cyclamen als auch mit dem erfindungsgemäßen Cyclam aus Beispiel 1 komplexiert und anschließend jeweils der ¹¹¹In-Austausch gegen Transferrin - ein bekanntermaßen gutes Komplexierungsmittel - in humanem Serum bei 37°C untersucht.

For Dodecatetraacetate [DOTA], the “¹¹¹In-Austausch gegen Transferrin” value reads like this: (12 h) “ca. 0,3%”; (120 h) “ca. 4%”.
For “12-(p-Nitrobenzyl)-1,4,7,10-tetraacetat-1,4,7,10-tetraazacyclotridecan [Beispiel 1]” the same measures were < 0,1% and “ca. 1%”.
